From ChEMBL document CHEMBL1201862, “PubChem BioAssay data set” (2004)
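Each compound was tested at five concentrations against cells in 96-well plates for 48 hours. The concentration for 50% growth inhibition is given as GI50.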 Active and inactive are the calls of the source. No stated cut-off is given here; in the data, active = GI50 up to about 1.1 µM and inactive = higher.

Columns and labels:
Assay in all cases: NCI-60 cell line screen, 48 h
HOP-92 = system: HOP-92
HCT-116 = system: HCT-116
A498 = system: A498
UACC-62 = system: UACC-62
Malme-3M = system: Malme-3M
BT-549 = system: BT-549
EKVX = system: EKVX
M14 = system: M14
KM12 = system: KM12
MOLT-4 = system: MOLT-4
Hs-578T = system: Hs-578T
SN12C = system: SN12C
HT-29 = system: HT-29
786-0 = system: 786-0
SW-620 = system: SW-620
NCI-H522 = system: NCI-H522
SF-295 = system: SF-295
OVCAR-3 = system: OVCAR-3
PC-3 = system: PC-3

SMILES	GI50 (HOP-92)	GI50 (HCT-116)	GI50 (A498)	GI50 (UACC-62)	GI50 (Malme-3M)	GI50 (BT-549)	GI50 (EKVX)	GI50 (M14)	GI50 (KM12)	GI50 (MOLT-4)	GI50 (Hs-578T)	GI50 (SN12C)	GI50 (HT-29)	GI50 (786-0)	GI50 (SW-620)	GI50 (NCI-H522)	GI50 (SF-295)	GI50 (OVCAR-3)	GI50 (PC-3)
C[N+](C)(C)/N=C\c1ccc(O)c(O)c1	> 100 µM (inactive)	> 100 µM (inactive)	> 100 µM (inactive)	> 100 µM (inactive)	> 100 µM (inactive)	> 100 µM (inactive)	> 100 µM (inactive)	> 100 µM (inactive)	> 100 µM (inactive)	> 100 µM (inactive)	> 100 µM (inactive)	> 100 µM (inactive)	> 100 µM (inactive)	> 100 µM (inactive)	> 100 µM (inactive)	> 100 µM (inactive)	> 100 µM (inactive)	> 100 µM (inactive)	> 100 µM (inactive)
CN1CCc2[nH]nc(-c3n[nH]c4c3CN(C)CC4)c2C1	> 100 µM (inactive)	> 100 µM (inactive)	> 100 µM (inactive)	> 100 µM (inactive)	> 100 µM (inactive)	> 100 µM (inactive)	> 100 µM (inactive)	> 100 µM (inactive)	> 100 µM (inactive)	> 100 µM (inactive)	> 100 µM (inactive)	> 100 µM (inactive)	> 100 µM (inactive)	> 100 µM (inactive)	> 100 µM (inactive)	> 100 µM (inactive)	> 100 µM (inactive)	> 100 µM (inactive)	> 100 µM (inactive)
Nc1ccc(S(=O)(=O)c2ccc(/N=[N+](\[O-])c3ccc(S(=O)(=O)c4ccc(N)cc4)cc3)cc2)cc1	10.1 µM (inactive)	46.5 µM (inactive)	30.8 µM (inactive)	> 50 µM (inactive)	> 56.4 µM (inactive)	27.2 µM (inactive)	50 µM (inactive)	99.3 µM (inactive)	> 100 µM (inactive)	> 100 µM (inactive)	8.39 µM (inactive)	> 68.9 µM (inactive)	> 100 µM (inactive)	18.5 µM (inactive)	> 100 µM (inactive)	17.9 µM (inactive)	22.1 µM (inactive)	31 µM (inactive)	> 55.3 µM (inactive)
O=C(NC(=S)Nc1ccc(Br)cc1)c1ccc2c(c1)Sc1ccccc1S2	15.8 µM (inactive)	23.2 µM (inactive)	19.6 µM (inactive)	27.5 µM (inactive)	24.4 µM (inactive)	39.1 µM (inactive)	–	12.4 µM (inactive)	23.8 µM (inactive)	7.53 µM (inactive)	26.5 µM (inactive)	18.8 µM (inactive)	33.6 µM (inactive)	16.2 µM (inactive)	31.6 µM (inactive)	23.1 µM (inactive)	20.4 µM (inactive)	20.3 µM (inactive)	47.8 µM (inactive)
C=C(C)[C@H]1C[C@@H]2O[C@@](O)(/C(C)=C\C(=O)/C=C(/C)C[C@H]3OC(=O)[C@@]24O[C@H]34)[C@@H]1O	> 100 µM (inactive)	> 100 µM (inactive)	> 100 µM (inactive)	> 100 µM (inactive)	> 100 µM (inactive)	> 100 µM (inactive)	> 100 µM (inactive)	> 100 µM (inactive)	> 100 µM (inactive)	> 100 µM (inactive)	> 100 µM (inactive)	> 100 µM (inactive)	> 100 µM (inactive)	> 100 µM (inactive)	> 100 µM (inactive)	> 100 µM (inactive)	> 100 µM (inactive)	> 100 µM (inactive)	> 100 µM (inactive)
C=CC1(C)CCC2C(=CCC3C2(C)CC(O)C(O)C3(C)COC2OC(CO)C(O)C(O)C2O)C1 (stereo not given)	> 100 µM (inactive)	> 100 µM (inactive)	> 100 µM (inactive)	> 100 µM (inactive)	> 100 µM (inactive)	> 100 µM (inactive)	> 100 µM (inactive)	> 100 µM (inactive)	> 100 µM (inactive)	68.1 µM (inactive)	> 100 µM (inactive)	> 100 µM (inactive)	> 100 µM (inactive)	> 100 µM (inactive)	> 100 µM (inactive)	> 100 µM (inactive)	> 100 µM (inactive)	–	> 100 µM (inactive)
CCCC(=O)OC[n+]1cccc(-c2c(COC(=O)NC(C)C)c(COC(=O)NC(C)C)c3n2CCC3)c1	32.4 µM (inactive)	19.7 µM (inactive)	28.5 µM (inactive)	20.1 µM (inactive)	66.5 µM (inactive)	> 79.6 µM (inactive)	> 100 µM (inactive)	50.9 µM (inactive)	> 100 µM (inactive)	13.6 µM (inactive)	> 100 µM (inactive)	37.8 µM (inactive)	> 68.2 µM (inactive)	37.5 µM (inactive)	48.2 µM (inactive)	30.4 µM (inactive)	71.9 µM (inactive)	> 77.8 µM (inactive)	> 86.7 µM (inactive)
O=C1NC(=O)C(C(c2ccc([N+](=O)[O-])cc2)C2C(=O)NC(=O)NC2=O)C(=O)N1	> 100 µM (inactive)	> 100 µM (inactive)	> 100 µM (inactive)	> 100 µM (inactive)	55.8 µM (inactive)	> 100 µM (inactive)	–	> 100 µM (inactive)	> 100 µM (inactive)	> 100 µM (inactive)	> 100 µM (inactive)	> 100 µM (inactive)	> 100 µM (inactive)	> 100 µM (inactive)	> 100 µM (inactive)	> 100 µM (inactive)	> 100 µM (inactive)	> 100 µM (inactive)	> 100 µM (inactive)
COC(=O)C1=C2Nc3ccccc3C23CCN2C(O)C4(CC5CC67CCOC6CCN6CCC8(c9cccc(OC)c9N(C4)C58O)C67)C4OCCC4(C1)C23 (stereo not given)	27.2 µM (inactive)	34.5 µM (inactive)	64.3 µM (inactive)	> 100 µM (inactive)	56.4 µM (inactive)	> 100 µM (inactive)	52.8 µM (inactive)	71.9 µM (inactive)	78.9 µM (inactive)	–	22.5 µM (inactive)	79.8 µM (inactive)	> 100 µM (inactive)	24.3 µM (inactive)	62.4 µM (inactive)	36.4 µM (inactive)	34.6 µM (inactive)	> 100 µM (inactive)	34.8 µM (inactive)
O=C1c2cc3c(cc2NC(c2ccccc2F)C1O)OCO3 (stereo not given)	33.6 µM (inactive)	3.97 µM (inactive)	13.3 µM (inactive)	10.9 µM (inactive)	9.86 µM (inactive)	57.1 µM (inactive)	16.9 µM (inactive)	10.4 µM (inactive)	6.65 µM (inactive)	19.5 µM (inactive)	18.1 µM (inactive)	22.2 µM (inactive)	17.6 µM (inactive)	15.5 µM (inactive)	5.19 µM (inactive)	10.5 µM (inactive)	12.1 µM (inactive)	20.5 µM (inactive)	10.6 µM (inactive)
CCSC1=N/C(=C\c2ccco2)C(NN)=N1	> 50 µM (inactive)	> 50 µM (inactive)	> 50 µM (inactive)	> 50 µM (inactive)	> 50 µM (inactive)	> 50 µM (inactive)	> 50 µM (inactive)	> 50 µM (inactive)	> 50 µM (inactive)	> 50 µM (inactive)	> 50 µM (inactive)	> 50 µM (inactive)	> 50 µM (inactive)	> 50 µM (inactive)	> 50 µM (inactive)	> 50 µM (inactive)	> 50 µM (inactive)	> 50 µM (inactive)	> 50 µM (inactive)
CC1=C(C)C(=O)C(C2=CC(=O)C=CC2=O)=C(C2=CC(=O)C=CC2=O)C1=O	36.4 µM (inactive)	31.8 µM (inactive)	> 100 µM (inactive)	39.6 µM (inactive)	66.1 µM (inactive)	86.9 µM (inactive)	> 54.1 µM (inactive)	> 76.9 µM (inactive)	64.4 µM (inactive)	15.5 µM (inactive)	45.4 µM (inactive)	31 µM (inactive)	> 72.6 µM (inactive)	76.7 µM (inactive)	28.4 µM (inactive)	21.2 µM (inactive)	> 96.2 µM (inactive)	–	62.8 µM (inactive)
Cc1cc2c(cc1C)[n+]([O-])c(NCCCN(C)C)c(C#N)[n+]2[O-]	> 100 µM (inactive)	73.3 µM (inactive)	> 100 µM (inactive)	76.4 µM (inactive)	95.1 µM (inactive)	79.1 µM (inactive)	68.5 µM (inactive)	> 100 µM (inactive)	> 100 µM (inactive)	22.7 µM (inactive)	> 100 µM (inactive)	82.4 µM (inactive)	61.5 µM (inactive)	> 100 µM (inactive)	> 100 µM (inactive)	57.4 µM (inactive)	42 µM (inactive)	76.4 µM (inactive)	> 100 µM (inactive)
CCCCCCCCCCCCCC[C@@H](O)[C@H]1CC[C@H]([C@H]2CC[C@H]([C@H](O)CCCCCC[C@@H](O)CC3=C[C@H](C)OC3=O)O2)O1	3.34 µM (inactive)	0.203 µM (active)	> 12.5 µM (inactive)	1.54 µM (inactive)	> 25 µM (inactive)	> 25 µM (inactive)	> 7.52 µM (inactive)	> 25 µM (inactive)	> 25 µM (inactive)	–	1.63 µM (inactive)	2.2 µM (inactive)	1.7 µM (inactive)	> 25 µM (inactive)	> 25 µM (inactive)	8.93 µM (inactive)	> 25 µM (inactive)	> 25 µM (inactive)	> 25 µM (inactive)
